Calls of active or inactive are those of the source. The calls are words filed in the database; no cut-off is given here.
Columns and labels:
Elastase = Elastase (Pseudomonas aeruginosa (strain ATCC 15692 / PAO1 / 1C / PRS 101 / LMG12228), UniProt P14756); assay: (§1) Antagonist activity at Pseudomonas aeruginosa LasB using Abz-Ala-Gly-Leu-Ala-p-Nitro-Benzyl-Amide as substrate incubated for 30 mins prior to substrate addition by FRET assay; format: functional
[1] = target: Elastase (Pseudomonas aeruginosa (strain ATCC 15692 / PAO1 / 1C / PRS 101 / LMG12228)) (UniProt P14756); assay: as §1; format: functional
Sequence of Elastase (Pseudomonas aeruginosa (strain ATCC 15692 / PAO1 / 1C / PRS 101 / LMG12228)) (P14756 198-498 limits assumed): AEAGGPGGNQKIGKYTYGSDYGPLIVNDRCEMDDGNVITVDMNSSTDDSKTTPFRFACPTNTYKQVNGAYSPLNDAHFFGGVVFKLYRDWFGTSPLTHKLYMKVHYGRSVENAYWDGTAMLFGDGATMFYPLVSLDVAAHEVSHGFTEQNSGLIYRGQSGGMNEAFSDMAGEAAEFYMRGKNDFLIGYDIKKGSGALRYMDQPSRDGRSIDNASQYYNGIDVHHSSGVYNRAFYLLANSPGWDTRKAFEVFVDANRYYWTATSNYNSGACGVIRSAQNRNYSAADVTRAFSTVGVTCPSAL

[2] = Metabolic stability in tryptic soy broth assessed as S-oxidation at 50 uM after 48 hrs; format: physicochemical
[3] = target: Elastase (Pseudomonas aeruginosa (strain ATCC 15692 / PAO1 / 1C / PRS 101 / LMG12228)) (UniProt P14756); assay: Antagonist activity at Pseudomonas aeruginosa PA14 LasB assessed as inhibition of swarming at 25 uM after 16 hrs swarming motility assay relative to control; format: functional
[4] = Metabolic stability in tryptic soy broth assessed as decomposition at 50 uM after 48 hrs; format: physicochemical
Pseudomonas aeruginosa = assay: Toxicity against Pseudomonas aeruginosa PA14 assessed as viability at 25 uM by spectrophotometry; format: organism-based; conditions: read-out: Activity

Sequence of Elastase (P14756 whole entry): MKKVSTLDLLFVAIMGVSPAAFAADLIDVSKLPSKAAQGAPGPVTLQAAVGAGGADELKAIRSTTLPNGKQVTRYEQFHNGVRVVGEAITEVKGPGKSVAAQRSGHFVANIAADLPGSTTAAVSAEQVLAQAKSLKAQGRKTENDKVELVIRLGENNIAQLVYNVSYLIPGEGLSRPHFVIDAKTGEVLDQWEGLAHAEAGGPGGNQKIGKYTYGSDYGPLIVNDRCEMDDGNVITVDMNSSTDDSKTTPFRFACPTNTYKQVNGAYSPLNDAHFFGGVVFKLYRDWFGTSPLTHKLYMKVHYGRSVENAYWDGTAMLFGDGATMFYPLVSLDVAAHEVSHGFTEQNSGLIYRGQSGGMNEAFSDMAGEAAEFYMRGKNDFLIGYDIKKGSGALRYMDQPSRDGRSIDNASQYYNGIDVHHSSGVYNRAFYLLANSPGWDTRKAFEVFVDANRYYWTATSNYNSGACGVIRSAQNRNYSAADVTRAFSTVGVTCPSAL

| SMILES | IC50 (Elastase) | Activity [1] | Stability [2] | Activity [3] | Stability [4] | viability at 25 µM (Pseudomonas aeruginosa) |
| --- | --- | --- | --- | --- | --- | --- |
| COc1ccc(-c2ccc(Cn3ccc(=S)c(O)c3C)cc2)cc1 | 8.58 µM | – | – | – | – | – |
| Cn1cccc(O)c1=S | 220 µM | Dose-dependent effect | – | – | – | – |
| Cc1c(O)c(=S)ccn1Cc1ccc(-c2ccccc2)cc1 | 2.73 µM | – | Stable | Active | Stable | 95% |
| Cc1ccc(-c2ccc(Cn3ccc(=S)c(O)c3C)cc2)cc1 | 6.72 µM | – | – | – | – | – |
| Cc1c(O)c(=S)ccn1C | – | Dose-dependent effect | – | – | – | – |
| O=C(Cc1ccccc1)NO [PHENYLACETOHYDROXAMIC ACID] | 13.6 µM | Dose-dependent effect | Unstable | inactive | Unstable | – |
| Cc1c(O)c(=S)ccn1Cc1ccc(-c2ccc(F)cc2)cc1 | 4.65 µM | – | – | – | – | – |
| CCn1ccc(=S)c(O)c1C | 88.5 µM | Dose-dependent effect | – | – | – | – |
| Cc1c(O)c(=S)ccn1Cc1ccc(-c2ccc(F)c(F)c2)cc1 | 3.34 µM | – | Stable | Active | Stable | 95% |
| O=C(Cc1cccc(F)c1)NO | 16.4 µM | Dose-dependent effect | Unstable | inactive | Unstable | – |
| Cc1c(O)c(=S)ccn1Cc1ccc(-c2ccc3c(c2)OCO3)cc1 | 3.58 µM | – | – | – | – | – |
| CCc1c(O)c(=S)ccn1CC | – | Dose-dependent effect | – | – | – | – |
| Cc1c(O)c(=S)ccn1Cc1ccc(-c2ccc(Cl)cc2)cc1 | 5.27 µM | – | – | – | – | – |
